For orientation: solubility means how much of the substance goes into solution per volume.

In patent US20250382344A1, “Soluble GLP1/GIP/NPY2 Receptor Triple Agonists” (Boehringer Ingelheim International GmH, priority 2024, published 2025) one finds EC50 and solubility data, which are given here for 4 compounds.

The target of one series is T1, hGIPR (Homo sapiens, UniProt P48546).
T1 construct: expressed in transfected cells; host or cells: CHO CRE-luciferase reporter cells
T1 sequence (P48546 22-466): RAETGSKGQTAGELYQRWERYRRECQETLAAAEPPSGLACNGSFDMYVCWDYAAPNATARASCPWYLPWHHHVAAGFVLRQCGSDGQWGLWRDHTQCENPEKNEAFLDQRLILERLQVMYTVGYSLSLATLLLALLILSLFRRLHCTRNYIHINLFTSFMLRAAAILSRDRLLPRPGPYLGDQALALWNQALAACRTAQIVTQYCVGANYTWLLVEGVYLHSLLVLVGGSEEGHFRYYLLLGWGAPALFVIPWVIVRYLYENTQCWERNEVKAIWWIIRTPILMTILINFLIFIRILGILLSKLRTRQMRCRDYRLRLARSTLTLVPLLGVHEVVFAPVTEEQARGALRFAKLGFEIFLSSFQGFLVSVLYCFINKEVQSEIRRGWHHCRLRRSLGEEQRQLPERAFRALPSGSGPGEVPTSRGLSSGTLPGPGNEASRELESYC
In words: hGIPR CreLuc assay in 0.5% and 100% plasma (CHO CRE-luciferase reporter cells). In kind it is cell-based.

Series [1] is described as follows: Solubility in 0.1 M phosphate buffer at pH 7. The series is classed as physicochemical. To be noted: 0.1 M phosphate buffer at pH 7, 10 mg/mL final peptide concentration, shaking 2 hours at room temperature, peptides as TFA-salts; measured sample pH 6.5-7.0.
[2] abbreviates: 0.5% human plasma, read-out: hGIPR 0.5% hP.

The structures appear in SMILES notation. Like-named read-outs stand apart in the source and are kept apart here.

Consider `CC[C@H](C)[C@H](NC(=O)[C@H](CC(C)C)NC(=O)[C@H](Cc1c[nH]cn1)NC(=O)[C@H](CCCNC(=N)N)NC(=O)[C@@H](NC(=O)[C@H](Cc1ccccc1)NC(=O)[C@H](C)NC(=O)C(C)(C)NC(=O)[C@H](CCC(N)=O)NC(=O)[C@H](C)NC(=O)[C@H](CCC(N)=O)NC(=O)[C@H](CCC(=O)O)NC(=O)[C@H](CC(=O)O)NC(=O)[C@H](CC(C)C)NC(=O)C(C)(C)NC(=O)[C@@H](NC(=O)[C@H](CO)NC(=O)[C@H](Cc1ccc(O)cc1)NC(=O)[C@H](CC(=O)O)NC(=O)[C@H](CO)NC(=O)[C@@H](NC(=O)[C@H](Cc1ccccc1)NC(=O)[C@@H](NC(=O)CNC(=O)[C@H](CCC(=O)O)NC(=O)C(C)(C)NC(=O)[C@@H](N)Cc1ccc(O)cc1)[C@@H](C)O)[C@@H](C)O)[C@@H](C)CC)C(C)C)C(=O)N[C@@H](CC(N)=O)C(=O)N[C@@H](CCCCNC(=O)[C@@H](N)CCCCNC(=O)[C@@H](N)CCCCNC(=O)CC[C@H](NC(=O)CC[C@H](NC(=O)CC[C@H](NC(=O)CC[C@H](NC(=O)CC[C@H](NC(=O)CCCCCCCCCCCCCCCCCCC(=O)O)C(=O)O)C(=O)O)C(=O)O)C(=O)O)C(=O)O)C(=O)NC(C)(C)C(=O)N[C@H](C(=O)N[C@@H](CCCNC(=N)N)C(=O)N[C@@H](CCC(N)=O)C(=O)N[C@@H](CCCNC(=N)N)C(=O)N[C@@H](Cc1ccc(O)cc1)C(N)=O)[C@@H](C)O` [Compound 155, Y-Aib-E-G-T-F-T-S-D-Y-S-I-Aib-L-D-E-Q-A-Q-Aib-A-F-V-R-H-L-I-N-K(1,3)-Aib-T-R-Q-R-Y-NH2.C20DA-gGlu-gGlu-gGlu-gGlu-gGlu-eLys-eLys(1,2)], for which the EC50 on hGIPR (setting [2]) amounted to 700 pM. Further, the solubility at 2 h in series [1] was 8900 µg/mL.

On to `CC[C@H](C)[C@H](NC(=O)[C@H](CC(C)C)NC(=O)[C@H](Cc1c[nH]cn1)NC(=O)[C@H](CCCNC(=N)N)NC(=O)[C@@H](NC(=O)[C@H](Cc1ccccc1)NC(=O)[C@H](C)NC(=O)C(C)(C)NC(=O)[C@H](CCC(N)=O)NC(=O)[C@H](C)NC(=O)[C@H](CCC(N)=O)NC(=O)[C@H](CCCCN)NC(=O)[C@H](CCC(=O)O)NC(=O)[C@H](CC(C)C)NC(=O)C(C)(C)NC(=O)[C@@H](NC(=O)[C@H](CO)NC(=O)[C@H](Cc1ccc(O)cc1)NC(=O)[C@H](CC(=O)O)NC(=O)[C@H](CO)NC(=O)[C@@H](NC(=O)[C@H](Cc1ccccc1)NC(=O)[C@@H](NC(=O)CNC(=O)[C@H](CCC(=O)O)NC(=O)C(C)(C)NC(=O)[C@@H](N)Cc1ccc(O)cc1)[C@@H](C)O)[C@@H](C)O)[C@@H](C)CC)C(C)C)C(=O)N[C@@H](CC(N)=O)C(=O)N[C@@H](CCCCNC(=O)[C@@H](N)CCCCNC(=O)CC[C@H](NC(=O)CC[C@H](NC(=O)CC[C@H](NC(=O)CC[C@H](NC(=O)CC[C@H](NC(=O)CC[C@H](NC(=O)CCCCCCCCCCCCCCCCC(=O)O)C(=O)O)C(=O)O)C(=O)O)C(=O)O)C(=O)O)C(=O)O)C(=O)N[C@@H](C)C(=O)N[C@H](C(=O)N[C@@H](CCCNC(=N)N)C(=O)N[C@@H](CCC(N)=O)C(=O)N[C@@H](CCCNC(=N)N)C(=O)N[C@@H](Cc1ccc(O)cc1)C(N)=O)[C@@H](C)O` [Compound 159, Y-Aib-E-G-T-F-T-S-D-Y-S-I-Aib-L-E-K-Q-A-Q-Aib-A-F-V-R-H-L-I-N-K(1,3)-A-T-R-Q-R-Y-NH2.C18DA-gGlu-gGlu-gGlu-gGlu-gGlu-gGlu-eLys(1,2)], for which the EC50 at hGIPR (setting [2]) was 200 pM. In addition, in series [1], the solubility at 2 h was determined as 9600 µg/mL.

On to `CC[C@H](C)[C@H](NC(=O)[C@H](CC(C)C)NC(=O)[C@H](Cc1c[nH]cn1)NC(=O)[C@H](CCCNC(=N)N)NC(=O)[C@@H](NC(=O)[C@H](Cc1ccccc1)NC(=O)[C@H](C)NC(=O)C(C)(C)NC(=O)[C@H](CCC(N)=O)NC(=O)[C@H](C)NC(=O)[C@H](CCC(N)=O)NC(=O)[C@H](CCCCN)NC(=O)[C@H](CCC(=O)O)NC(=O)[C@H](CC(C)C)NC(=O)C(C)(C)NC(=O)[C@@H](NC(=O)[C@H](CO)NC(=O)[C@H](Cc1ccc(O)cc1)NC(=O)[C@H](CC(=O)O)NC(=O)[C@H](CO)NC(=O)[C@@H](NC(=O)[C@H](Cc1ccccc1)NC(=O)[C@@H](NC(=O)CNC(=O)[C@H](CCC(=O)O)NC(=O)C(C)(C)NC(=O)[C@@H](N)Cc1ccc(O)cc1)[C@@H](C)O)[C@@H](C)O)[C@@H](C)CC)C(C)C)C(=O)N[C@@H](CC(N)=O)C(=O)N[C@@H](CCCCNC(=O)CC[C@H](NC(=O)CC[C@H](NC(=O)CC[C@H](NC(=O)[C@@H](N)CCCCNC(=O)CC[C@H](NC(=O)CC[C@H](NC(=O)CC[C@H](NC(=O)CCCCCCCCCCCCCCCCC(=O)O)C(=O)O)C(=O)O)C(=O)O)C(=O)O)C(=O)O)C(=O)O)C(=O)NC(C)(C)C(=O)N[C@H](C(=O)N[C@@H](CCCNC(=N)N)C(=O)N[C@@H](CCC(N)=O)C(=O)N[C@@H](CCCNC(=N)N)C(=O)N[C@@H](Cc1ccc(O)cc1)C(N)=O)[C@@H](C)O` [Compound 168, Y-Aib-E-G-T-F-T-S-D-Y-S-I-Aib-L-E-K-Q-A-Q-Aib-A-F-V-R-H-L-I-N-K(1,3)-Aib-T-R-Q-R-Y-NH2.C18DA-gGlu-gGlu-gGlu-eLys-gGlu-gGlu-gGlu(1,2)], for which the EC50 on hGIPR (setting [2]) was 200 pM. In series [1], the solubility at 2 h was 8200 µg/mL.

For `CC[C@H](C)[C@H](NC(=O)[C@H](CC(C)C)NC(=O)[C@H](Cc1c[nH]cn1)NC(=O)[C@H](CCCNC(=N)N)NC(=O)[C@@H](NC(=O)[C@H](Cc1ccccc1)NC(=O)[C@H](C)NC(=O)C(C)(C)NC(=O)[C@H](CCC(N)=O)NC(=O)[C@H](C)NC(=O)[C@H](CCC(N)=O)NC(=O)[C@H](CCCCN)NC(=O)[C@H](CCC(=O)O)NC(=O)[C@H](CC(C)C)NC(=O)C(C)(C)NC(=O)[C@@H](NC(=O)[C@H](CO)NC(=O)[C@H](Cc1ccc(O)cc1)NC(=O)[C@H](CC(=O)O)NC(=O)[C@H](CO)NC(=O)[C@@H](NC(=O)[C@H](Cc1ccccc1)NC(=O)[C@@H](NC(=O)CNC(=O)[C@H](CCC(=O)O)NC(=O)C(C)(C)NC(=O)[C@@H](N)Cc1ccc(O)cc1)[C@@H](C)O)[C@@H](C)O)[C@@H](C)CC)C(C)C)C(=O)N[C@@H](CC(N)=O)C(=O)N[C@@H](CCCCNC(=O)CCCCCNC(=O)CC[C@H](NC(=O)CCCCCNC(=O)CC[C@H](NC(=O)CC[C@H](NC(=O)CC[C@H](NC(=O)CC[C@H](NC(=O)CCCCCCCCCCCCCCCCCCC(=O)O)C(=O)O)C(=O)O)C(=O)O)C(=O)O)C(=O)O)C(=O)NC(C)(C)C(=O)N[C@H](C(=O)N[C@@H](CCCNC(=N)N)C(=O)N[C@@H](CCC(N)=O)C(=O)N[C@@H](CCCNC(=N)N)C(=O)N[C@@H](Cc1ccc(O)cc1)C(N)=O)[C@@H](C)O` [Compound 175, Y-Aib-E-G-T-F-T-S-D-Y-S-I-Aib-L-E-K-Q-A-Q-Aib-A-F-V-R-H-L-I-N-K(1,3)-Aib-T-R-Q-R-Y-NH2.C20DA-gGlu-gGlu-gGlu-gGlu-AHX-gGlu-AHX(1,2)], the EC50 on hGIPR (setting [2]) is 200 pM; at hGIPR (100% human plasma, read-out: hGIPR 100% hP), 5600 pM. The solubility at 2 h in series [1] came to 8400 µg/mL.
